Inconclusive results and toxic doses are left out.
Test system: CD2F1 mice, L1210 leukemia ip, survival T/C
Assay: NCI In Vivo Anticancer Drug Screen. Data for tumor model L1210 Leukemia (intraperitoneal) in CD2F1 (CDF1) mice
Conditions: endpoint: mean survival time, higher = longer survival
Summary of the method: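 Ratio T/C, where T is the treated-group value and C the vehicle-dosed control value, from mice implanted with a transplantable tumor.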

[1] = dose: 100.0 mg/kg/injection, schedule: Q04DX003 (ip), vehicle: saline with Tween-80
[2] = dose: 400.0 mg/kg/injection, schedule: Q04DX003 (ip), vehicle: saline with Tween-80
[3] = dose: 100.0 mg/kg/injection, schedule: Q01DX009 (ip), vehicle: saline with Tween-80
[4] = dose: 200.0 mg/kg/injection, schedule: Q01DX009 (ip), vehicle: saline with Tween-80
[5] = dose: 400.0 mg/kg/injection, schedule: Q01DX009 (ip), vehicle: saline with Tween-80

## CCCC(Sc1nc(N)nc2nc[nH]c12)C(=O)O (configuration not stated)
dose: 25.0 mg/kg/injection, schedule: Q04DX003 (ip), vehicle: saline with Tween-80
  T/C: 103 % of control
dose: 50.0 mg/kg/injection, schedule: Q04DX003 (ip), vehicle: saline with Tween-80
  T/C: 110 % of control
[1]
  T/C: 118 % of control
dose: 150.0 mg/kg/injection, schedule: Q04DX003 (ip), vehicle: saline with Tween-80
  T/C: 151 % of control
dose: 300.0 mg/kg/injection, schedule: Q04DX003 (ip), vehicle: saline with Tween-80
  T/C: 156 % of control
[2]
  T/C: 168 % of control

## Nc1nc(-c2cccc([N+](=O)[O-])c2)c(N=Nc2ccccc2[N+](=O)[O-])s1
dose: 100.0 mg/kg/injection, schedule: Q01DX001 (ip), vehicle: saline with Tween-80
  T/C: 96 % of control
dose: 400.0 mg/kg/injection, schedule: Q01DX001 (ip), vehicle: saline with Tween-80
  T/C: 98 % of control

## CCOC(C=O)OCC
dose: 100.0 mg/kg/injection, schedule: Q01DX001 (ip), vehicle: saline
  T/C: 103 % of control
dose: 200.0 mg/kg/injection, schedule: Q01DX001 (ip), vehicle: saline
  T/C: 97 % of control
dose: 400.0 mg/kg/injection, schedule: Q01DX001 (ip), vehicle: saline
  T/C: 103 % of control

## COc1ccc2nc3cc(Cl)ccc3c(N)c2c1
dose: 2.5 mg/kg/injection, schedule: Q01DX009 (ip), vehicle: Klucel (hydroxypropylcellulose) (HPC)
  T/C: 110 % of control
dose: 5.0 mg/kg/injection, schedule: Q01DX009 (ip), vehicle: Klucel (hydroxypropylcellulose) (HPC)
  T/C: 103 % of control
dose: 10.0 mg/kg/injection, schedule: Q01DX009 (ip), vehicle: Klucel (hydroxypropylcellulose) (HPC)
  T/C: 98 % of control

## CCCS(=O)(=O)CS(=O)(=O)CC
dose: 75.0 mg/kg/injection, schedule: Q01DX001 (ip), vehicle: saline with Tween-80
  T/C: 100 % of control
dose: 150.0 mg/kg/injection, schedule: Q01DX001 (ip), vehicle: saline with Tween-80
  T/C: 92 % of control
dose: 300.0 mg/kg/injection, schedule: Q01DX001 (ip), vehicle: saline with Tween-80
  T/C: 90 % of control

## Cc1cc2ccc(OC(=O)c3ccc(N=C(N)N)cc3)cc2oc1=O
[3]
  T/C: 91 % of control
[4]
  T/C: 91 % of control
[5]
  T/C: 86 % of control

## NCCc1c[nH]c2ccccc12
[3]
  T/C: 93 % of control
[4]
  T/C: 95 % of control
[5]
  T/C: 98 % of control

## C=CCCCCCCCCC(=O)NCC(C)C
[3]
  T/C: 104 % of control
[1]
  T/C: 91 % of control
[4]
  T/C: 104 % of control
dose: 200.0 mg/kg/injection, schedule: Q04DX003 (ip), vehicle: saline with Tween-80
  T/C: 102 % of control
[5]
  T/C: 98 % of control
[2]
  T/C: 100 % of control

## NC(CSCc1cccs1)C(=O)O (configuration not stated)
dose: 25.0 mg/kg/injection, schedule: Q01DX009 (ip), vehicle: saline
  T/C: 94 % of control
dose: 50.0 mg/kg/injection, schedule: Q01DX009 (ip), vehicle: saline
  T/C: 100 % of control
dose: 100.0 mg/kg/injection, schedule: Q01DX009 (ip), vehicle: saline
  T/C: 90 % of control
dose: 200.0 mg/kg/injection, schedule: Q01DX009 (ip), vehicle: saline
  T/C: 101 % of control
dose: 400.0 mg/kg/injection, schedule: Q01DX009 (ip), vehicle: saline
  T/C: 95 % of control

## CO[C@@]12[C@H](COC(N)=O)C3=C(C(=O)C(C)=C(N)C3=O)N1C[C@H]1[C@@H]2N1C(=O)[C@@H]1N2C(=O)[C@@H](NC(=O)Cc3ccccc3)[C@H]2SC1(C)C
dose: 25.0 mg/kg/injection, schedule: Q01DX001 (ip), vehicle: carboxymethylcellulose (CMC)
  T/C: 109 % of control
dose: 25.0 mg/kg/injection, schedule: Q01DX007 (ip), vehicle: carboxymethylcellulose (CMC)
  T/C: 120 % of control
dose: 25.0 mg/kg/injection, schedule: Q01DX007 (oral), vehicle: carboxymethylcellulose (CMC)
  T/C: 100 % of control
dose: 50.0 mg/kg/injection, schedule: Q01DX001 (ip), vehicle: carboxymethylcellulose (CMC)
  T/C: 113 % of control
dose: 50.0 mg/kg/injection, schedule: Q01DX007 (ip), vehicle: carboxymethylcellulose (CMC)
  T/C: 116 % of control
dose: 50.0 mg/kg/injection, schedule: Q01DX007 (oral), vehicle: carboxymethylcellulose (CMC)
  T/C: 96 % of control
dose: 100.0 mg/kg/injection, schedule: Q01DX001 (ip), vehicle: carboxymethylcellulose (CMC)
  T/C: 111 % of control
dose: 200.0 mg/kg/injection, schedule: Q01DX001 (ip), vehicle: carboxymethylcellulose (CMC)
  T/C: 111 % of control
dose: 400.0 mg/kg/injection, schedule: Q01DX001 (ip), vehicle: carboxymethylcellulose (CMC)
  T/C: 111 % of control

## O=C(c1cc2c3ccccc3ccc2c2ccccc12)C(Br)Br
dose: 25.0 mg/kg/injection, schedule: Q01DX009 (ip), vehicle: saline with Tween-80
  T/C: 106 % of control
dose: 50.0 mg/kg/injection, schedule: Q01DX009 (ip), vehicle: saline with Tween-80
  T/C: 103 % of control
[3]
  T/C: 100 % of control
[1]
  T/C: 93 % of control

Source: PubChem BioAssay AID256 (DTP/NCI, 2004)
